# Data as given in article PMC10218596 (International Journal of Molecular Sciences, 2023).
# Assays:
# [1] = molecular target: T1, hα6/α3β4 (Homo sapiens, UniProt P30926+P32297+Q15825); experiment: Electrophysiological assay, ACh concentration-response (Xenopus oocytes); type: cell-based; conditions: ACh on hα6/α3β4
# T1 construct: splicing the N-terminal extracellular domain of the α6 subunit with the α3 subunit; host or cells: Xenopus laevis oocytes injected with cRNA (1:1)
# [2] = molecular target: h[α6I56V/α3]β4 (Homo sapiens, UniProt P30926+Q15825, I89V, form not given); type: cell-based; conditions: ACh on h[α6I56V/α3]β4
# Sequence of h[α6I56V/α3]β4 (Q15825 26-239 I89V, form open): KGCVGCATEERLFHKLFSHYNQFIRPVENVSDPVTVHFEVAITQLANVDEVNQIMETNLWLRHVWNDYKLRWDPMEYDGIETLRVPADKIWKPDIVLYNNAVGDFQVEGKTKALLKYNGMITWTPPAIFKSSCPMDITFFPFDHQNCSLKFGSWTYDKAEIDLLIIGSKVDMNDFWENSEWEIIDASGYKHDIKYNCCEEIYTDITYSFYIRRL
# Sequence of h[α6I56V/α3]β4 (P30926 22-498, form open): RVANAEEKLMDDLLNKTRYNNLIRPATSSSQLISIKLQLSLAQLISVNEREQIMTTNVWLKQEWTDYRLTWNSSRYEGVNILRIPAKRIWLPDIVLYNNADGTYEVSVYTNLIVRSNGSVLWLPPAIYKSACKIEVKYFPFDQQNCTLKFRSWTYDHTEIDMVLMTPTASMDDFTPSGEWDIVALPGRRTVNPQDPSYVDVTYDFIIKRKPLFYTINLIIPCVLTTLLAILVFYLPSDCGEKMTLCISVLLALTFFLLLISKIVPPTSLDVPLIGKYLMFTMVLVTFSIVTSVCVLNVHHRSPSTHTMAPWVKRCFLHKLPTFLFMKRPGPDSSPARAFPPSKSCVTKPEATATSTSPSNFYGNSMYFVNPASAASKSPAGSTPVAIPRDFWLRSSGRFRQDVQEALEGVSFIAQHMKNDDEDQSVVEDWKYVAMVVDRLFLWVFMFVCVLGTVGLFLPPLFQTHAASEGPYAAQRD
# Sequence of h[α6I56V/α3]β4 (P32297 241-505 partner, form open): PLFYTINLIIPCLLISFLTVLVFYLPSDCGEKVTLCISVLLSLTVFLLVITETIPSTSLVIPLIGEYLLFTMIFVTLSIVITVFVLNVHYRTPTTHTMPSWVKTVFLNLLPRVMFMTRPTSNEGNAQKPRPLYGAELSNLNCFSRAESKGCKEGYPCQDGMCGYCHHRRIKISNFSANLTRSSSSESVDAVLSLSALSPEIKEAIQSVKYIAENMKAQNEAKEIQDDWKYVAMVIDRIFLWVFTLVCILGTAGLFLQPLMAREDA
# T1 sequence (Q15825+P32297 fused with the stated changes): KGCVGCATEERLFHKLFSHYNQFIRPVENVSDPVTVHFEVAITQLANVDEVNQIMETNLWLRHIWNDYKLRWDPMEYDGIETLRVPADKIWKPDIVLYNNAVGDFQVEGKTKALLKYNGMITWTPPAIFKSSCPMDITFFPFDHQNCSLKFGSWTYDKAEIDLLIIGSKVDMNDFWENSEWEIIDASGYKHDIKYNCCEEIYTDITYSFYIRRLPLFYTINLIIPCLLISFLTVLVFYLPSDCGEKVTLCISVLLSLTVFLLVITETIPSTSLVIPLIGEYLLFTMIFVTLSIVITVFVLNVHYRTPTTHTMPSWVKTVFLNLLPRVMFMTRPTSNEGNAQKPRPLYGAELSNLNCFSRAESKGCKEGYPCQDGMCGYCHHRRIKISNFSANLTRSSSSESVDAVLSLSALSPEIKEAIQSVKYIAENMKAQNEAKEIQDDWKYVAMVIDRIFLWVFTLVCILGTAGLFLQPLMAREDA
# T1 sequence (P30926 22-498): as the sequence (P30926 22-498, form open) above
structure (smiles),measurement,setting,value
"CC(=O)OCC[N+](C)(C)C [ACh, acetylcholine chloride]",Hill Slope,[1],1.4 (1.2–1.7)
same,Hill Slope,[2],1.3 (1.1–1.5)
